Laboratory results from ChEMBL document CHEMBL1926576, “Fragment based lead discovery of small molecule inhibitors for the EPHA4 receptor tyrosine kinase” (Eur J Med Chem, 2012).
pIC50: −log10 of the molar value.

Key:
[1] = target: T1, Ephrin type-A receptor 4 (Homo sapiens, UniProt P54764); assay: Inhibition of his-tagged EPHA4-mediated poly(Glu,Tyr) phosphorylation at 200 uM after 75 mins using E4:Y1 as substrate by fluorescence assay
[2] = target: T1, Ephrin type-A receptor 4; assay: Inhibition of his-tagged EPHA4-mediated poly(Glu,Tyr) phosphorylation after 75 mins using E4:Y1 as substrate by fluorescence assay
[3] = target: T1, Ephrin type-A receptor 4; assay: Inhibition of his-tagged EPHA4-mediated poly(Glu,Tyr) phosphorylation at 500 uM after 75 mins using E4:Y1 as substrate by fluorescence assay

T1 sequence (P54764 whole entry): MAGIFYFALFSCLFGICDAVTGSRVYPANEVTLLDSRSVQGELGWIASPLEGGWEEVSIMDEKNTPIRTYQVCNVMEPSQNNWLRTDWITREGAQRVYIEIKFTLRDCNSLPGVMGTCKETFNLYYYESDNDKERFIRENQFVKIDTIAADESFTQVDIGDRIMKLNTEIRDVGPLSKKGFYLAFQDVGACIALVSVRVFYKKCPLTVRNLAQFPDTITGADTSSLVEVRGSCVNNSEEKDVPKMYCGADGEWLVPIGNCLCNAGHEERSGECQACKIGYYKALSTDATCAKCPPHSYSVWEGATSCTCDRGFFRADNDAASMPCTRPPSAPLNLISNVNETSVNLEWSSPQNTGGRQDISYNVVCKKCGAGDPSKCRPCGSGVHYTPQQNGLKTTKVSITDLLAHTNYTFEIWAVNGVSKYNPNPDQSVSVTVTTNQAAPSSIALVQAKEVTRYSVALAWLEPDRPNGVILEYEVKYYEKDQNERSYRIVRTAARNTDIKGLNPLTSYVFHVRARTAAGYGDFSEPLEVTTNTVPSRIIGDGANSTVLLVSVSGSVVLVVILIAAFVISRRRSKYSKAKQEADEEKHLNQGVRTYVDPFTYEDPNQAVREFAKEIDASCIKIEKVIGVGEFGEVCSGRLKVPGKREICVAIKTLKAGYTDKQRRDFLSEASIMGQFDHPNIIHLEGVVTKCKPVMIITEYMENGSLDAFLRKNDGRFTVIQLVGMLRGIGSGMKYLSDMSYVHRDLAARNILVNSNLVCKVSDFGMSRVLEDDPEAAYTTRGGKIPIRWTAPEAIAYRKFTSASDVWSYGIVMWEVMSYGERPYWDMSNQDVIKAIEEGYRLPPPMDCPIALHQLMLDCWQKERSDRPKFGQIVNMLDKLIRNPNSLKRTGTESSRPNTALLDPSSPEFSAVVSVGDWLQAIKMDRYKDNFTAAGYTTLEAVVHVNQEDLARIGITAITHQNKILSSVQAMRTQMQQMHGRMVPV

| inhibition [1] [%] | SMILES | other results |
| --- | --- | --- |
| 90 | CC1(C)Cc2c(c(-c3ccccc3)nc3[nH]nc(N)c23)CO1 |  |
| 80 | Nc1n[nH]c2ncc3c(c12)CCCCCC3 |  |
| 77 | CCCc1nc2[nH]nc(N)c2c2c1COC(C)(C)C2 |  |
| 75 | CC1(C)Cc2c(c(-c3ccco3)[nH]c3nnc(N)c2-3)CO1 |  |
| 70 | Cc1nc2[nH]nc(N)c2c2c1CSC(C)(C)C2 |  |
| 33 | CN1CCc2c(c(NCc3ccccc3)nc3[nH]nc(N)c23)C1 |  |
|  | Nc1n[nH]c2nc(-c3ccccc3Cl)c3c(c12)CCCC3 | pIC50 [2]: 5.09 |
| 82 | CC(C)c1nc2[nH]nc(N)c2c2c1COC(C)(C)C2 |  |
|  | Cc1ccccc1-c1nc2[nH]nc(N)c2c2c1CCCC2 | pIC50 [2]: 5.70 |
| 10 | Cc1cc(C)c2c(NC(=O)c3ccccc3)n[nH]c2n1 |  |
|  | Nc1n[nH]c2ncc3c(c12)CCCC3 | inhibition [3]: 80% |
| 87 | CC1(C)Cc2c(c(-c3ccccc3)nc3[nH]nc(N)c23)CS1 |  |

| SMILES | inhibition [1] [%] | other results |
| --- | --- | --- |
| CN1CCc2c(c(NCCO)nc3[nH]nc(N)c23)C1 | 0 |  |
| CN1CCc2c(c(N3CCOCC3)nc3[nH]nc(N)c23)C1 | 0 |  |
| CCN(CC)c1nc2[nH]nc(N)c2c2c1CN(C)CC2 | 5 |  |
